Data set [1] is described as follows: Plasma stability assay, human plasma. Type of data set: in vitro ADME. The following applies: 37° C., % intact compound remaining after 4 h or 24 h. The protocol:
In order to determine the stability of selected compounds of the invention in human and mouse plasma, a plasma stability assay was carried out. Such plasma stability assay measures degradation of compounds of the present invention in blood plasma. This is an important characteristic of a compound as compounds, with the exception of pro-drugs, which rapidly degrade in plasma, generally show poor in vivo efficacy. […] The stability is sufficient for the diagnostic, therapeutic and theragnostic use of these compounds according to the present invention.
The plasma stability samples were prepared by spiking 50 μL plasma aliquots (all K2EDTA) with 1 μL of a 0.5 mM compound stock solution in DMS0. After vortexing the samples were incubated in a Thermomixer at 37° C. for 0, 4 and 24 hours. After incubation the samples were stored on ice until further treatment. All samples were prepared in duplicates.
A suitable internal standard was added to each sample (1 μL of a 0.5 mM stock solution in DMSO). Protein precipitation was performed by addition of 250 μL of acetonitrile containing 1% trifluoroacetic acid. After incubation at room temperature for 30 min the precipitate was separated by centrifugation and 150 μL of the supernatant was diluted with 150 μL of 1% aqueous formic acid.
Additionally, recovery was determined by spiking a pure plasma sample that only contained the internal standard after treatment with a certain amount of the compound.
Carry-over was evaluated by analysis of a blank sample (20% acetonitrile) after the highest calibration sample.

The nature of data set [2]: Plasma stability assay, mouse plasma. Type of data set: in vitro ADME. The following applies: 37° C., % intact compound remaining after 4 h or 24 h. In short, it runs like this:
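K2EDTA mouse or human plasma spiked with compound from 0.5 mM DMSO stock, incubated at 37 °C for 0, 4 and 24 h in duplicate. Proteins precipitated with acetonitrile/1% TFA, internal standard added; recovery and carry-over evaluated.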

The target of another data set is T1, Human GIPR (Homo sapiens, UniProt P48546).
T1 construct: host or cells: CHO-K1 or CHO-VGT
T1 sequence (P48546 22-466): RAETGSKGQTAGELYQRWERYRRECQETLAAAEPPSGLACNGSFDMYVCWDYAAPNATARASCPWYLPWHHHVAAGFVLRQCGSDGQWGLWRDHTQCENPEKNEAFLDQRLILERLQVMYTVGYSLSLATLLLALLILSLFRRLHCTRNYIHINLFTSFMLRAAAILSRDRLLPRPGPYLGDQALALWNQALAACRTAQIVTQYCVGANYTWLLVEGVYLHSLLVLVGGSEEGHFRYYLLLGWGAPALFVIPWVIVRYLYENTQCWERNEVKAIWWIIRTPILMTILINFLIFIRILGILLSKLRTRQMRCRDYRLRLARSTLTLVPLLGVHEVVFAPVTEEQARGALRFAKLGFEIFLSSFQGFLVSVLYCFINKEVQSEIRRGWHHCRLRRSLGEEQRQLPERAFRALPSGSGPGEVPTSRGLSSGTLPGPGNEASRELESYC
Description: Radioligand binding assay, human GIPR. The following applies: 111In-labeled compound, 6 h, 37° C., read-out: pKD Category (converted). The protocol:
(§1) In order to assess the affinity of ^111In-labeled compounds to the GIPR receptor of different species, a radioligand binding assay was established.
(§2) CHO-K1 cells (GenScript Biotech, #M00486) were stably transfected with the human GIPR. CHO-K1-hGIPR cells were cultured in Ham's F12 medium (Sigma-Aldrich, #N4888) including 10% fetal calf serum (FCS), 2 mM L-glutamine, 100 U/mL penicillin, 100 µg/mL streptomycin, 200 µg/mL Zeocin and 100 µg/mL HygromycinB. To evaluate the species cross-reactivity, CHO-VGT cells were transfected with the human, dog, rat and mouse GIPR (Inscreenex GmbH), which were cultured in DMEM/Ham's F12 Medium 1:1 (Biochrom, #F485) including 5% fetal calf serum (FCS), 2 mM L-glutamine, 100 U/mL penicillin and 100 μg/mL streptomycin. Cells were detached with Accutase (Biolegend, #BLD-423201) and counted using a particle counter (CASY Model TT; Schärfe Systems). Cell concentrations were adjusted to 3×10^5 mL^−1, and 1.000 μL of the suspension per well were dispensed into flat-clear-bottom 24 well plates.
(§3) Approximately 24 hours after re-seeding, the medium was aspirated and the cells were washed once with 700 μL assay medium (Ham's medium with 20 mM HEPES). […]
(§4) At the end of incubation time, cells were washed and subsequently harvested in 300 μL RIPA buffer containing PIC. Radioactivity of the cell lysate of each well was counted using a gamma counter (Perkin Elmer). […]

The target of a further data set is T2, Mouse GIPR (Mus musculus, UniProt Q0P543).
T2 construct: host or cells: CHO-VGT
T2 sequence (Q0P543 19-460): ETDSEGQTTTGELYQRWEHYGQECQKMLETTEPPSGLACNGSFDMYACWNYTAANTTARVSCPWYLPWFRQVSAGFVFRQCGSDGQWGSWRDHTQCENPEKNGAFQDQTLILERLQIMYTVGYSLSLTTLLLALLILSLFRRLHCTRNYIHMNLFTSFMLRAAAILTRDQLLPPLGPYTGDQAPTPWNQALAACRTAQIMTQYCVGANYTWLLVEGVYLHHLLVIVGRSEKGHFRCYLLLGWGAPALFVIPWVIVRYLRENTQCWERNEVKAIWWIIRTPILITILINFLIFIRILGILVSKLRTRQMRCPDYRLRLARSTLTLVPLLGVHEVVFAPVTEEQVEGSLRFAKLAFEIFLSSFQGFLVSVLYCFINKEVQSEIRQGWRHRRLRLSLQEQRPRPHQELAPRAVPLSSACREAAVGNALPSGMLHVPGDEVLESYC
Put plainly: Radioligand binding assay, mouse GIPR. The following applies: 111In-labeled compound, 6 h, 37° C., read-out: pKD Category (converted). The protocol: as §1, §2, §3, §4

*1 amine or outer side, *2 acyl side, *3 side chain or, on linkers, in order; H or OH if unused. Where a SMILES comes first, the peptide text is derived from it. Bridges are numbered along the chain shown (N, C = ends). [ ]: non-standard residue; d: D form. The star is where a group is joined. NH(1-deoxy-D-glucityl) = OC[C@@H](O)[C@@H](O)[C@H](O)[C@@H](O)CN*; DOTA = O=C(O)CN1CCN(CC(=O)O)CCN(CC(=O)*)CCN(CC(=O)O)CC1; Trp(5-Cl) = N[C@@H](Cc1c[nH]c2ccc(Cl)cc12)C(=O)O; Pyridine(2,6-diCH2) = c1cc(C[*:1])nc(C[*:2])c1; Pro(4R-NH2) = N[C@H]1CN[C@H](C(=O)O)C1; Glutaryl = O=C(CCCC(=O)[*:2])[*:1]; X1 = O=C(CN1CCC(N[*:1])CC1)[*:2]; Api = NC1(C(=O)O)CCNCC1

Take `CC[C@H](C)[C@@H]1NC(=O)[C@H](CC(C)C)NC(=O)C2(CCN(C(=O)CN3CCN(CC(=O)O)CCN(CC(=O)O)CCN(CC(=O)O)CC3)CC2)NC(=O)[C@@H](NC(=O)[C@@H](CC(C)C)NC(=O)[C@H](CCC(=O)O)NC(=O)[C@@H]2C[C@@H](N)CN2C(=O)[C@H](Cc2c[nH]c3ccc(Cl)cc23)NC(=O)[C@H](Cc2c[nH]c3ccccc23)NC(=O)[C@H](CC(=O)O)NC(=O)CCCC(=O)NC[C@H](O)[C@@H](O)[C@H](O)[C@H](O)CO)CSCc2cccc(n2)CSC[C@@H](C(=O)NC2CCN(CC(=O)N[C@H](CCC(=O)NC[C@H](O)[C@@H](O)[C@H](O)[C@H](O)CO)C(N)=O)CC2)NC1=O` [GIP-001, AGLU-Glutar-Asp-Trp-5Clw-Tap-Glu-leu-[Cys(2Lut)-Apc(DOTA)-Leu-Ile-Cys]-APAc-glu(AGLU)-NH2] ({NH(1-deoxy-D-glucityl)-Glutaryl}-DW[Trp(5-Cl)][Pro(4R-NH2)]E[dL]C[Api](DOTA)LIC[X1][dE](NH(1-deoxy-D-glucityl))-NH2; linker 7-11 via Pyridine(2,6-diCH2)): the “Human plasma stability category” value in data set [1] is “A (>80% intact after 24 hours)”. Besides, the “Mouse plasma stability category” value in data set [2] is given as “A (>80% intact after 24 hours)”. The figures for the Kd on Human GIPR and at Mouse GIPR were < 0.316 nM and > 1 nM, respectively.
